Data: patent US8192962B2, “Processes for detecting toxic substances” (Daikin Industries, Ltd., priority 2001, dated 2012)

Tested on: Unknown protein yeast genes
Experiment: DNA chip mRNA expression in yeast, unknown protein yeast genes (Table 1)
Format: cell-based, Saccharomyces cerevisiae S288C
Outline: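 Ratios compare mRNA levels in stressed and control S. cerevisiae. Each toxicant was applied for two hours to log-phase cultures at 25° C. at a sub-lethal, growth-inhibiting level; fluorescent cDNA (Cy3- or Cy5-dUTP) was hybridized to a genome-wide yeast chip for over 12 h at 65° C.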

N#Cc1c(Cl)c(Cl)c(Cl)c(C#N)c1Cl [(9), 2,4,5,6-tetrachloro-1,3-benzenedicarbonitrile]
The level of expressed mRNA in the presence of chemical substance/The level of expressed mRNA in the absence of chemical substance (yeast gene YAL053W, incubated two hours with chemical substance): 1.4
The level of expressed mRNA in the presence of chemical substance/The level of expressed mRNA in the absence of chemical substance (yeast gene YBL048W): 7.2
The level of expressed mRNA in the presence of chemical substance/The level of expressed mRNA in the absence of chemical substance (yeast gene YBL107C): 1.0
The level of expressed mRNA in the presence of chemical substance/The level of expressed mRNA in the absence of chemical substance (yeast gene YDL072C, incubated two hours with chemical substance): 1.1
The level of expressed mRNA in the presence of chemical substance/The level of expressed mRNA in the absence of chemical substance (yeast gene YDL146W): 0.8
The level of expressed mRNA in the presence of chemical substance/The level of expressed mRNA in the absence of chemical substance (yeast gene YDL204W, incubated two hours with chemical substance): 2.3
The level of expressed mRNA in the presence of chemical substance/The level of expressed mRNA in the absence of chemical substance (yeast gene YDL222C, incubated two hours with chemical substance): 1.9
The level of expressed mRNA in the presence of chemical substance/The level of expressed mRNA in the absence of chemical substance (yeast gene YDR057W): 1.5
The level of expressed mRNA in the presence of chemical substance/The level of expressed mRNA in the absence of chemical substance (yeast gene YDR286C): 0.8
The level of expressed mRNA in the presence of chemical substance/The level of expressed mRNA in the absence of chemical substance (yeast gene YDR330W, incubated two hours with chemical substance): 3.9
The level of expressed mRNA in the presence of chemical substance/The level of expressed mRNA in the absence of chemical substance (yeast gene YDR391C, incubated two hours with chemical substance): 1.5
The level of expressed mRNA in the presence of chemical substance/The level of expressed mRNA in the absence of chemical substance (yeast gene YDR411C, incubated two hours with chemical substance): 0.7
The level of expressed mRNA in the presence of chemical substance/The level of expressed mRNA in the absence of chemical substance (yeast gene YDR511W, incubated two hours with chemical substance): 2.5
The level of expressed mRNA in the presence of chemical substance/The level of expressed mRNA in the absence of chemical substance (yeast gene YDR545W, incubated two hours with chemical substance): 1.8
The level of expressed mRNA in the presence of chemical substance/The level of expressed mRNA in the absence of chemical substance (yeast gene YEL001C, incubated two hours with chemical substance): 2.0
The level of expressed mRNA in the presence of chemical substance/The level of expressed mRNA in the absence of chemical substance (yeast gene YER004W, incubated two hours with chemical substance): 4.5
The level of expressed mRNA in the presence of chemical substance/The level of expressed mRNA in the absence of chemical substance (yeast gene YER035W, incubated two hours with chemical substance): 1.2
The level of expressed mRNA in the presence of chemical substance/The level of expressed mRNA in the absence of chemical substance (yeast gene YER079W, incubated two hours with chemical substance): 5.3
The level of expressed mRNA in the presence of chemical substance/The level of expressed mRNA in the absence of chemical substance (yeast gene YER106W, incubated two hours with chemical substance): 0.4
The level of expressed mRNA in the presence of chemical substance/The level of expressed mRNA in the absence of chemical substance (yeast gene YER158C, incubated two hours with chemical substance): 2.1
The level of expressed mRNA in the presence of chemical substance/The level of expressed mRNA in the absence of chemical substance (yeast gene YER163C, incubated two hours with chemical substance): 5.4
The level of expressed mRNA in the presence of chemical substance/The level of expressed mRNA in the absence of chemical substance (yeast gene YER175C, incubated two hours with chemical substance): 1.9
The level of expressed mRNA in the presence of chemical substance/The level of expressed mRNA in the absence of chemical substance (yeast gene YFL006W, incubated two hours with chemical substance): 3.2
The level of expressed mRNA in the presence of chemical substance/The level of expressed mRNA in the absence of chemical substance (yeast gene YFL010C, incubated two hours with chemical substance): 3.1
The level of expressed mRNA in the presence of chemical substance/The level of expressed mRNA in the absence of chemical substance (yeast gene YFL017C): 0.8
The level of expressed mRNA in the presence of chemical substance/The level of expressed mRNA in the absence of chemical substance (yeast gene YFL024C): 0.5
The level of expressed mRNA in the presence of chemical substance/The level of expressed mRNA in the absence of chemical substance (yeast gene YFL032W, incubated two hours with chemical substance): 0.5
The level of expressed mRNA in the presence of chemical substance/The level of expressed mRNA in the absence of chemical substance (yeast gene YFR008W): 1.5
The level of expressed mRNA in the presence of chemical substance/The level of expressed mRNA in the absence of chemical substance (yeast gene YGL037C, incubated two hours with chemical substance): 2.1
The level of expressed mRNA in the presence of chemical substance/The level of expressed mRNA in the absence of chemical substance (yeast gene YGL047W, incubated two hours with chemical substance): 4.5
The level of expressed mRNA in the presence of chemical substance/The level of expressed mRNA in the absence of chemical substance (yeast gene YGL053W, incubated two hours with chemical substance): 3.3
The level of expressed mRNA in the presence of chemical substance/The level of expressed mRNA in the absence of chemical substance (yeast gene YGL121C): 7.0
The level of expressed mRNA in the presence of chemical substance/The level of expressed mRNA in the absence of chemical substance (yeast gene YGR101W, incubated two hours with chemical substance): 4.0
The level of expressed mRNA in the presence of chemical substance/The level of expressed mRNA in the absence of chemical substance (yeast gene YGR110W): 6.4
The level of expressed mRNA in the presence of chemical substance/The level of expressed mRNA in the absence of chemical substance (yeast gene YGR130C, incubated two hours with chemical substance): 2.0
The level of expressed mRNA in the presence of chemical substance/The level of expressed mRNA in the absence of chemical substance (yeast gene YGR154C, incubated two hours with chemical substance): 25.2
The level of expressed mRNA in the presence of chemical substance/The level of expressed mRNA in the absence of chemical substance (yeast gene YHL042W): 0.8
The level of expressed mRNA in the presence of chemical substance/The level of expressed mRNA in the absence of chemical substance (yeast gene YHR138C, incubated two hours with chemical substance): 5.3
The level of expressed mRNA in the presence of chemical substance/The level of expressed mRNA in the absence of chemical substance (yeast gene YHR199C, incubated two hours with chemical substance): 8.6
The level of expressed mRNA in the presence of chemical substance/The level of expressed mRNA in the absence of chemical substance (yeast gene YIL023C, incubated two hours with chemical substance): 3.5
The level of expressed mRNA in the presence of chemical substance/The level of expressed mRNA in the absence of chemical substance (yeast gene YIL024C, incubated two hours with chemical substance): 2.2
The level of expressed mRNA in the presence of chemical substance/The level of expressed mRNA in the absence of chemical substance (yeast gene YIL041W, incubated two hours with chemical substance): 1.8
The level of expressed mRNA in the presence of chemical substance/The level of expressed mRNA in the absence of chemical substance (yeast gene YIL087C, incubated two hours with chemical substance): 2.4
The level of expressed mRNA in the presence of chemical substance/The level of expressed mRNA in the absence of chemical substance (yeast gene YIL117C, incubated two hours with chemical substance): 2.3
The level of expressed mRNA in the presence of chemical substance/The level of expressed mRNA in the absence of chemical substance (yeast gene YJL057C, incubated two hours with chemical substance): 7.3
The level of expressed mRNA in the presence of chemical substance/The level of expressed mRNA in the absence of chemical substance (yeast gene YJL066C, incubated two hours with chemical substance): 2.0
The level of expressed mRNA in the presence of chemical substance/The level of expressed mRNA in the absence of chemical substance (yeast gene YJL082W, incubated two hours with chemical substance): 1.4
The level of expressed mRNA in the presence of chemical substance/The level of expressed mRNA in the absence of chemical substance (yeast gene YJL108C, incubated two hours with chemical substance): 0.3
The level of expressed mRNA in the presence of chemical substance/The level of expressed mRNA in the absence of chemical substance (yeast gene YJL151C, incubated two hours with chemical substance): 0.5
The level of expressed mRNA in the presence of chemical substance/The level of expressed mRNA in the absence of chemical substance (yeast gene YJL152W, incubated two hours with chemical substance): 0.3
The level of expressed mRNA in the presence of chemical substance/The level of expressed mRNA in the absence of chemical substance (yeast gene YJL161W, incubated two hours with chemical substance): 3.1
The level of expressed mRNA in the presence of chemical substance/The level of expressed mRNA in the absence of chemical substance (yeast gene YJL171C, incubated two hours with chemical substance): 1.0
The level of expressed mRNA in the presence of chemical substance/The level of expressed mRNA in the absence of chemical substance (yeast gene YJR008W, incubated two hours with chemical substance): 1.8
The level of expressed mRNA in the presence of chemical substance/The level of expressed mRNA in the absence of chemical substance (yeast gene YKL065C): 3.1
The level of expressed mRNA in the presence of chemical substance/The level of expressed mRNA in the absence of chemical substance (yeast gene YKL071W): 162.2
The level of expressed mRNA in the presence of chemical substance/The level of expressed mRNA in the absence of chemical substance (yeast gene YKL086W, incubated two hours with chemical substance): 8.2
The level of expressed mRNA in the presence of chemical substance/The level of expressed mRNA in the absence of chemical substance (yeast gene YKL147C): 1.0
The level of expressed mRNA in the presence of chemical substance/The level of expressed mRNA in the absence of chemical substance (yeast gene YKL151C, incubated two hours with chemical substance): 3.3
The level of expressed mRNA in the presence of chemical substance/The level of expressed mRNA in the absence of chemical substance (yeast gene YKL153W, incubated two hours with chemical substance): 0.8
